Measurements taken from the CheMixHub viscosity set.

Experiment: xn = mol fraction of the nth substance listed

ClC(Cl)C(Cl)Cl + CC#N
303.15 K, 101.32 kPa
Conditions | viscosity [mPa·s]
x2 = 0.1125 | 1.381
x2 = 0.2007 | 1.315
x2 = 0.2582 | 1.266
x2 = 0.3568 | 1.17
x2 = 0.4174 | 1.103
x2 = 0.4937 | 1.012
x2 = 0.5964 | 0.8767
x2 = 0.6989 | 0.7317
x2 = 0.8504 | 0.5162
x2 = 0.9233 | 0.4184

N#CCCO + CC#N
298 K, 101 kPa
Conditions | viscosity [mPa·s]
x1 = 0.1342 | 0.466
x1 = 0.2793 | 0.689
x1 = 0.4366 | 0.906
x1 = 0.6079 | 1.358
x1 = 0.7949 | 2.144

Oc1ccccc1 + CC(=O)c1ccccc1
303.15 K, 101 kPa
Conditions | viscosity [mPa·s]
x2 = 0.0901 | 4.976
x2 = 0.2182 | 4.319
x2 = 0.3102 | 3.905
x2 = 0.4048 | 3.519
x2 = 0.5083 | 3.131
x2 = 0.5936 | 2.839
x2 = 0.7241 | 2.404
x2 = 0.7583 | 2.295
x2 = 0.8846 | 1.887

COCCOCCOC + CC(C)(C)O
viscosity [mPa·s], 101 kPa
Conditions | x1 = 0.1032 | x1 = 0.2054 | x1 = 0.3014 | x1 = 0.4031 | x1 = 0.5025 | x1 = 0.6046 | x1 = 0.7072 | x1 = 0.8058 | x1 = 0.8973
298.15 K | 2.377 | 1.768 | 1.453 | 1.259 | 1.146 | 1.073 | 1.032 | 1.008 | 0.995
303.15 K | 1.954 | 1.523 | 1.274 | 1.123 | 1.033 | 0.974 | 0.943 | 0.921 | 0.915
308.15 K | 1.625 | 1.319 | 1.13 | 1.009 | 0.937 | 0.888 | 0.864 | 0.852 | 0.844

CC=CC(=O)O + CC(C)=O
viscosity [mPa·s], 101 kPa
Conditions | x1 = 0.0488 | x1 = 0.1 | x1 = 0.1504 | x1 = 0.1994 | x1 = 0.2534 | x1 = 0.2705
298.15 K | 0.3461 | 0.3887 | 0.4349 | 0.4858 | 0.5435 | 0.5686
303.15 K | 0.3299 | 0.3718 | 0.4141 | 0.461 | 0.5149 | 0.5368
308.15 K | 0.3157 | 0.3531 | 0.3935 | 0.4352 | 0.4883 | 0.5066
313.15 K | 0.3017 | 0.3379 | 0.3756 | 0.4196 | 0.463 | 0.4869
323.15 K | 0.2771 | 0.3079 | 0.342 | 0.3849 | 0.4184 | 0.438

ClC(Cl)C(Cl)Cl + CC(C)=O
298.15 K, 101 kPa
Conditions | viscosity [mPa·s]
x1 = 0.2 | 0.509
x1 = 0.4 | 0.811
x1 = 0.6 | 1.138
x1 = 0.8 | 1.499

OC(C(F)(F)F)C(F)(F)F + CC(C)=O
298.15 K, 101 kPa
Conditions | viscosity [mPa·s]
x2 = 0.2 | 1.35
x2 = 0.4 | 0.964
x2 = 0.5 | 0.838
x2 = 0.6 | 0.658
x2 = 0.8 | 0.45
x2 = 0.9 | 0.369
x2 = 0.95 | 0.336

Oc1ccccc1 + CC(C)=O
viscosity [mPa·s], 101 kPa
Conditions | 293.2 K | 302.95 K | 313.25 K | 322.95 K
x1 = 0.0613 | – | 0.36 | 0.328 | 0.299
x1 = 0.0926 | 0.429 | – | – | –
x1 = 0.1303 | – | 0.441 | 0.399 | 0.36
x1 = 0.1837 | 0.56 | – | – | –
x1 = 0.1912 | – | 0.521 | 0.47 | 0.422
x1 = 0.2695 | – | 0.67 | 0.59 | 0.53
x1 = 0.2749 | 0.755 | – | – | –
x1 = 0.3325 | – | 0.808 | 0.711 | 0.628
x1 = 0.3763 | 1.055 | – | – | –
x1 = 0.4181 | – | 1.058 | 0.904 | 0.794
x1 = 0.458 | 1.379 | – | – | –
x1 = 0.4832 | – | 1.319 | 1.101 | 0.95
x1 = 0.5364 | 1.853 | – | – | –
x1 = 0.5583 | – | 1.658 | 1.363 | 1.15
x1 = 0.6341 | 2.75 | – | – | –
x1 = 0.6402 | – | 2.18 | 1.741 | 1.425
x1 = 0.6982 | 3.59 | – | – | –
x1 = 0.7215 | – | 2.91 | 2.23 | 1.785
x1 = 0.7829 | 4.97 | – | – | –
x1 = 0.8187 | – | 3.915 | 2.875 | 2.245
x1 = 0.8885 | – | 4.905 | 3.465 | 2.615
x1 = 0.8891 | 7.3 | – | – | –

COCCOCCOC + CC(C)CC(C)(C)C
viscosity [mPa·s], 101.33 kPa
Conditions | x1 = 0.0931 | x1 = 0.1978 | x1 = 0.2916 | x1 = 0.4016 | x1 = 0.4538 | x1 = 0.5881 | x1 = 0.687 | x1 = 0.7926 | x1 = 0.8997
298.15 K | 0.49 | 0.511 | 0.538 | 0.58 | 0.602 | 0.668 | 0.726 | 0.808 | 0.887
303.15 K | 0.46 | 0.481 | 0.507 | 0.545 | 0.564 | 0.624 | 0.677 | 0.741 | 0.821
308.15 K | 0.435 | 0.455 | 0.478 | 0.512 | 0.529 | 0.584 | 0.632 | 0.69 | 0.762
313.15 K | 0.413 | 0.43 | 0.451 | 0.482 | 0.5 | 0.548 | 0.592 | 0.647 | 0.712
318.15 K | 0.389 | 0.405 | 0.425 | 0.453 | 0.468 | 0.512 | 0.553 | 0.601 | –

CCCCCCn1cc[n+](C)c1.F[B-](F)(F)F + CC(C)CO
101 kPa
Conditions | viscosity [mPa·s]
293.15 K, x1 = 0.5606 | 49.75
303.15 K, x1 = 0.8327 | 84.55
308.15 K, x1 = 0.1004 | 4.975

COCCOCCOC + CC(C)CO
viscosity [mPa·s], 101 kPa
Conditions | x1 = 0.104 | x1 = 0.2048 | x1 = 0.3058 | x1 = 0.4023 | x1 = 0.5027 | x1 = 0.605 | x1 = 0.7019 | x1 = 0.8023 | x1 = 0.9024
298.15 K | 2.146 | 1.635 | 1.377 | 1.231 | 1.136 | 1.076 | 1.038 | 1.011 | 0.995
308.15 K | 1.649 | 1.302 | 1.121 | 1.013 | 0.947 | 0.904 | 0.876 | 0.856 | 0.846
318.15 K | 1.284 | 1.047 | 0.938 | 0.845 | 0.796 | 0.78 | 0.747 | 0.733 | 0.726
